Test results from article PMC8795197, “Safety and activity of WX-0593 (Iruplinalkib) in patients with ALK- or ROS1-rearranged advanced non-small cell lung cancer: a phase 1 dose-escalation and dose-expansion trial” (Signal Transduction and Targeted Therapy, 2022).
Like-named read-outs stand apart in the source and are kept apart here.

Assays:
[1] = system: advanced NSCLC patients with ALK or ROS1 rearrangement; test: Phase 1 dose-escalation phase: antitumor activity (RECIST 1.1, investigators); type: in vivo, human
Description: The starting dose for WX-0593 was 30 mg, which was selected on the basis of preclinical toxicology studies (data unpublished), according to the International Conference on Harmonisation Guidance for Industry S9 Nonclinical Evaluation for Anticancer Pharmaceuticals.[30] Three patients were assigned to each dose level. In the dosing cohort of 30 mg, treatment included a single WX-0593 dose, followed by 7-day PK evaluation period, and subsequent daily oral dosing for continuous 21 days. In other dosing cohorts, WX-0593 was administered orally as a single dose in the 4-day PK run-in period, followed by dosing once per day in continuous 21-day cycles. The DLT observation period was the first cycle of WX-0593 treatment (the single-dose period and 21 days of multiple-dose period). Patients performed imaging evaluation at baseline, with computed tomography or magnetic resonance imaging of the chest, abdomen, pelvis, and brain. In the dose-escalation phase, the first efficacy evaluation was done after 3-week continuous administration of WX-0593 and every 6 weeks thereafter. […] If responses (CR or PR) were observed, repeat assessments were required to confirm the responses 4 weeks after the initial evaluation. […] AEs were assessed in all patients throughout this study and graded per the National Cancer Institute Common Terminology Criteria for Adverse Events version 4.03. In the dose-escalation phase, the primary endpoints were MTD, DLT, and safety assessed by investigators and the subsequent recommended dose of WX-0593. Safety parameters included TEAEs, SAEs, and TRAEs. The key secondary endpoints were PK parameters and preliminary antitumor activity of WX-0593. ORR was defined as the proportion of patients who had best overall response, including CR or PR. PFS was calculated from the date of the first dose of WX-0593 to the date of documented disease progression or death (whichever occurred first). DCR was defined as the proportion of patients who had best overall response, including CR, PR, or SD, with a duration of at least 12 weeks. TTP was calculated from the date when the first dose of WX-0593 was given to first documented disease progression. […] OS was calculated from the date when the first dose of WX-0593 was administered to the date of death from any cause. Safety analysis was performed in the SS, which was comprised of all patients treated with one dose of WX-0593 and with safety data recorded. Efficacy analysis was performed in the FAS, which was defined as all patients treated with at least one dose of WX-0593. The PK analysis set included all patients treated with at least one dose of WX-0593 and with at least one evaluable PK sample. […] Descriptive statistics were carried out to summarize patients’ baseline characteristics and safety. […] All time-to-event data (PFS, TTP, DOR, and OS) and their corresponding 95% CIs were estimated by Kaplan–Meier methods. PK parameter analyses were done with Phoenix WinNonlin version 8.0. All other statistical analyses were conducted using SAS version 9.4.

Ba/F3 (EML4-ALK-WT) = test: Cell proliferation inhibition assay; type: cell-based
LU-01-0319R NSCLC PDX = test: PDX model resistant to crizotinib; type: in vivo
[2] = Absorption study (IV and oral PK); type: in vivo, cynomolgus monkeys; details: for bioavailability: read-out: absolute bioavailability
Description: Rats and cynomolgus monkeys were selected for the absorption studies based on the "Guidance on the non-clinical pharmacokinetics of medicinal products" (CFDA, 2014) and the in vitro study of species differences in liver microsomes and hepatocyte metabolism.
In general, within the range of 0.5 mg/kg–8 mg/kg, the systemic exposure in male cynomolgus monkeys increased proportionately with the dose, while increased slightly faster than the dose in female cynomolgus monkeys.

in vivo [3] = details: male
in vivo [4] = details: cynomolgus monkey, po; for AUC(0-t) / Cmax: 50 mg/kg
[5] = Single-dose toxicity study (acute toxicity)
[6] = Repeated-dose toxicity study, 28 days oral gavage
Description: Repeated administration for 28 days was carried out. 3, 10, and 30 mg/kg were administered to rats. 1, 3, and 10 mg/kg were administered to cynomolgus monkeys.

Compound: COc1cc(N2CCC3(CCN(C)CC3)CC2)ccc1Nc1ncc(Cl)c(Nc2ccccc2P(C)(C)=O)n1 [WX-0593]
- ORR (n/N, 95%CI) ([1]; ALK TKI naive, dose: 30, 60, 90, 120, 180, 240, 300 mg, 30 mg): 66.7% (2/3, 9.4-99.2%)
- ORR (n/N, 95%CI) ([1]; ALK TKI naive, dose: 30, 60, 90, 120, 180, 240, 300 mg, 90 mg): 50.0% (1/2, 1.3-98.7%)
- ORR (n/N, 95%CI) ([1]; ALK TKI naive, dose: 30, 60, 90, 120, 180, 240, 300 mg, 120 mg): 75.0% (6/8, 34.9-96.8%)
- ORR (n/N, 95%CI) ([1]; ALK TKI naive, dose: 30, 60, 90, 120, 180, 240, 300 mg, 180 mg): 83.3% (5/6, 35.9-99.6%)
- ORR (n/N, 95%CI) ([1]; ALK TKI naive, dose: 30, 60, 90, 120, 180, 240, 300 mg, 240 mg): 60.0% (3/5, 14.7-94.7%)
- ORR (n/N, 95%CI) ([1]; ALK TKI naive, dose: 30, 60, 90, 120, 180, 240, 300 mg, 300 mg): 100.0% (1/1, 2.5-100.0%)
- DCR ([1]; ALK-rearranged patients): 89.1%
- ORR (n/N, 95%CI) ([1]; ALK-rearranged patients, total): 63.0%
- ORR (n/N, 95%CI) ([1]; ALK-rearranged, ALK TKI naive, dose: 30, 60, 90, 120, 180, 240, 300 mg, 30 mg): 100% (2/2, 15.8-100%)
- ORR (n/N, 95%CI) ([1]; ALK-rearranged, ALK TKI naive, dose: 30, 60, 90, 120, 180, 240, 300 mg, 60 mg): 66.7% (2/3, 9.4-99.2%)
- ORR (n/N, 95%CI) ([1]; ALK-rearranged, ALK TKI naive, dose: 30, 60, 90, 120, 180, 240, 300 mg, 120 mg): 85.7% (6/7, 42.1-99.6%)
- ORR (n/N, 95%CI) ([1]; ALK-rearranged, ALK TKI naive, dose: 30, 60, 90, 120, 180, 240, 300 mg, 180 mg): 75.0% (3/4, 19.4-99.4%)
- ORR (n/N, 95%CI) ([1]; ALK-rearranged, ALK TKI naive, dose: 30, 60, 90, 120, 180, 240, 300 mg, 300 mg): 100% (1/1, 2.5-100%)
- ORR (n/N, 95%CI) ([1]; ALK-rearranged, crizotinib and other ALK TKIs, dose: 30, 60, 90, 120, 180, 240, 300 mg, 120 mg): 100% (1/1, 2.5-100%)
- ORR (n/N, 95%CI) ([1]; ALK-rearranged, crizotinib and other ALK TKIs, total): 100% (3/3, 29.2- 100%)
- ORR (n/N, 95%CI) ([1]; ALK-rearranged, crizotinib only, total): 40.0% (8/20, 19.1-63.9%)
- DCR ([1]; ROS1-rearranged patients): 80.0%
- ORR (n/N, 95%CI) ([1]; ROS1-rearranged, crizotinib and other ALK TKIs, dose: 30, 60, 90, 120, 180, 240, 300 mg, 90 mg): 0% (0/1, 0-97.5%)
- ORR (n/N, 95%CI) ([1]; ROS1-rearranged, crizotinib and other ALK TKIs, total): 0% (0/2, 0-84.2%)
- ORR (n/N, 95%CI) ([1]; ROS1-rearranged, crizotinib only, dose: 30, 60, 90, 120, 180, 240, 300 mg, 90 mg): 0% (0/1, 0-97.5%)
- ORR (n/N, 95%CI) ([1]; ROS1-rearranged, crizotinib only, total): 0% (0/3, 0-70.8%)
- median PFS ([1]; ROS1 rearrangement, crizotinib-naive (n = 7)): 3.65 months
- ORR (n/N, 95%CI) ([1]; baseline CNS metastasis, total): 9.1% (2/22, 1.1-29.2%)
- ORR (n/N, 95%CI) ([1]; baseline measurable CNS metastasis, total): 33.3% (2/6,4.3-77.7%)
- ORR (n/N, 95%CI) ([1]; prior crizotinib and other ALK TKI, dose: 30, 60, 90, 120, 180, 240, 300 mg, 120 mg): 100% (1/1, 2.5-100%)
- ORR (n/N, 95%CI) ([1]; prior crizotinib and other ALK TKI, total): 100% (3/3, 29.2-100%)
- DOR, median (95% CI) ([1]; total (n=54)): 10.87 (10.87, NR) mo
- PFS, median (95% CI) ([1]; total (n=54)): 11.89 (5.03, 11.89) mo
- TTP, median (95% CI) ([1]; total (n=54)): 11.89 (6.44, 11.89) mo
- growth inhibition (Ba/F3 (EML4-ALK-WT)): significantly inhibits the growth
- anti-tumor effect (LU-01-0319R NSCLC PDX; WX-0593 2.5, 5, 10 mg/kg, ceritinib 10/20 mg/kg, brigatinib 10 mg/kg): significant anti-tumor effects
- body weight (LU-01-0319R NSCLC PDX; all treatment arms): no significant decrease in weight
- Tmax ([2]; both sexes, cynomolgus monkey, plasma, oral gavage 0.5–8 mg/kg): 2 to 3.33 h
- half-life ([2]; both sexes, cynomolgus monkey, plasma, oral gavage 0.5–8 mg/kg, read-out: plasma terminal half-life): 3.29 to 8.14 h
- AUC(0-t) ([2]; both sexes, cynomolgus monkey, plasma, single IV 0.5 mg/kg, read-out: AUC0-24h): 323 ± 91.1 ng·h/mL
- Vd ([2]; both sexes, cynomolgus monkey, plasma, single IV 0.5 mg/kg, read-out: apparent volume of distribution (Vdss)): 7.7 ± 1.24 L/kg
- MRT inf ([2]; both sexes, cynomolgus monkey, plasma, single IV 0.5 mg/kg, read-out: mean residence time (MRT0-inf)): 5.03 ± 138 h
- clearance ([2]; both sexes, cynomolgus monkey, plasma, single IV 0.5 mg/kg, read-out: plasma clearance (CL)): 26.8 ± 6.82 mL/min/kg
- half-life ([2]; both sexes, cynomolgus monkey, plasma, single IV 0.5 mg/kg, read-out: plasma elimination half-life T1/2 (converted)): 4.37 ± 2.38 h
- bioavailability ([2]; both sexes, cynomolgus monkey, plasma, single oral 0.5 mg/kg): 37.5%
- bioavailability ([2]; both sexes, cynomolgus monkey, plasma, single oral 8 mg/kg): 74.7%
- drug accumulation ([2]; oral 2 mg/kg, 7 consecutive days): no significant drug accumulation
- absolute bioavailability ([2]; single oral 2 mg/kg): 46.6%
- MTD (in vivo [3]): 200 mg/kg
- MTD (in vivo [4]): 50 mg/kg
- AUC(0-t) (in vivo [4]; female): 50600 ng·h/mL
- Cmax (in vivo [4]; female): 4010 ng/mL
- AUC(0-t) (in vivo [4]; male): 35000 ng·h/mL
- Cmax (in vivo [4]; male): 2180 ng/mL
- drug exposure at MTD as multiple of that at the effective dose ([5]; female animals): 13.7 times
- drug exposure at MTD as multiple of that at the effective dose ([5]; male animals): 9.5 times
- human equivalent dose (HED) ([6]; 1/5 of NOAEL, 60 kg/person): 12 mg/person
- human equivalent dose ([6]; 1/6 of HNSTD, 60 kg/person): 32 mg/person
- highest non-severely toxic dose (HNSTD) ([6]; 28 days oral gavage): greater than 10 mg/kg/day
- HNSTD as multiple of the effective dose in nude mice ([6]; cynomolgus monkey, in vivo): 16 times
- NOAEL as multiple of the effective dose in nude mice ([6]; cynomolgus monkey, in vivo): 4.8 times
